One experiment concerns the target T1, EcKdpD (Escherichia coli, UniProt P21865).
T1 construct: gene kdpD; full-length, from pBXC3H (His-tag), produced in E. coli TK2281, purified in DDM or SMALPs
T1 sequence (P21865 1-894): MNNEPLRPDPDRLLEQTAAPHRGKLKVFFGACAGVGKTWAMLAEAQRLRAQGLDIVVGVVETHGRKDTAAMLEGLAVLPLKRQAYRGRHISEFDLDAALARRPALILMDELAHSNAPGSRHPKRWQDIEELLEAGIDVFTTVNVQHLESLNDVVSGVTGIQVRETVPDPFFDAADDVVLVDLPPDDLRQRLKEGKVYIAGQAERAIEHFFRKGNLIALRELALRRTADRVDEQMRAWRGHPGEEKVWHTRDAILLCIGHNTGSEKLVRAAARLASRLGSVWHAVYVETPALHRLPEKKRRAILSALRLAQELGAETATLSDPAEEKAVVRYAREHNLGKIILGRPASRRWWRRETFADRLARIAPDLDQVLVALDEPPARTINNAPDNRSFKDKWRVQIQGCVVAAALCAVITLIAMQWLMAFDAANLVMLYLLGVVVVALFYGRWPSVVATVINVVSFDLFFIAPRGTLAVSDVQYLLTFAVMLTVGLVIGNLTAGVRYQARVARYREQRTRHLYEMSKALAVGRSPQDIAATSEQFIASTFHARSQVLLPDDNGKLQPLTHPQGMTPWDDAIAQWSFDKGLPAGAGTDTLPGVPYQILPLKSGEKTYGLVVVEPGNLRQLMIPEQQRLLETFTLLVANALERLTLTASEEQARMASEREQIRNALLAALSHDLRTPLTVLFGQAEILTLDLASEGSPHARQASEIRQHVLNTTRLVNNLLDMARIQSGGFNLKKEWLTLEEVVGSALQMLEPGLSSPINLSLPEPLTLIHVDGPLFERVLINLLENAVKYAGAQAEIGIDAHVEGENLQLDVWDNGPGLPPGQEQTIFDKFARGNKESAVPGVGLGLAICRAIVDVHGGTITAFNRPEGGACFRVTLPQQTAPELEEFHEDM
The experiment in a line: in vitro phosphorylation of KdpB, phosphoprotein gel stain. It counts as biochemical. The conditions noted are these: phosphate donor of serine kinase; 5 mM ATP, 400 mM KCl, room temperature, 30 min, KdpFABC (KdpB D307N) as protein substrate.

The next experiment has as its target T2, KdpFABC (Escherichia coli, UniProt P03960).
T2 construct: gene kdpB
The note with it: 2 mM ATP, 1 mM KCl, 37 °C; non-phosphorylated complex purified from E. coli TK2281.

In a further experiment the target is T3, KdpDNTD (Escherichia coli, UniProt P21865).
T3 construct: gene kdpD
The experiment in a line: in vitro phosphorylation of KdpB, phosphoprotein gel stain. It counts as biochemical. The conditions noted are these: phosphate donor of serine kinase; 5 mM ATP, 400 mM KCl, room temperature, 30 min, KdpFABC (KdpB D307N) as protein substrate; no ATPase activity alone.

The target in experiment [1] is T4, DgKdpD (Deinococcus geothermalis, UniProt Q1J2K3).
T4 construct: gene Dgeo_2852; short KdpD/Usp domain version, full chain; expressed in E. coli TK2281 from pBXC3H; His-tag removed with 3C protease on column
The experiment is described as above. The format is biochemical. The conditions noted are these: phosphate donor of serine kinase; 5 mM ATP, 1 mM c-di-AMP, room temperature, 30 min, E. coli KdpFABC (KdpB D307N) as protein substrate.

For experiment [2], the target named is T4, DgKdpD. Description: in vitro phosphorylation of E. coli KdpB, phosphoprotein gel stain. It counts as biochemical. The note with it: activator; 1 mM c-di-AMP, 5 mM ATP, E. coli KdpFABC (KdpB D307N) as protein substrate, room temperature, 30 min.

The source of these data is PMC11018627, “KdpD is a tandem serine histidine kinase that controls K^+ pump KdpFABC transcriptionally and post-translationally” (Nature Communications, 2024).

T4 sequence (Q1J2K3 entry or part of it): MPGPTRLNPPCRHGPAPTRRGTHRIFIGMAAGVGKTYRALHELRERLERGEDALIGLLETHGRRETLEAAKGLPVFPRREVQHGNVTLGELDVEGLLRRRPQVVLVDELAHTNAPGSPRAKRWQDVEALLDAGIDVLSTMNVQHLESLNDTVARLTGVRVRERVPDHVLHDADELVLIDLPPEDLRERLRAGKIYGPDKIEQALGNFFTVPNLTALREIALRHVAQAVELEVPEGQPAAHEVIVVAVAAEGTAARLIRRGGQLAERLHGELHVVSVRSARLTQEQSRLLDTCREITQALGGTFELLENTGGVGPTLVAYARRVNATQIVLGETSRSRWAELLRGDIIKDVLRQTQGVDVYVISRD
T2 sequence (P03959 whole entry): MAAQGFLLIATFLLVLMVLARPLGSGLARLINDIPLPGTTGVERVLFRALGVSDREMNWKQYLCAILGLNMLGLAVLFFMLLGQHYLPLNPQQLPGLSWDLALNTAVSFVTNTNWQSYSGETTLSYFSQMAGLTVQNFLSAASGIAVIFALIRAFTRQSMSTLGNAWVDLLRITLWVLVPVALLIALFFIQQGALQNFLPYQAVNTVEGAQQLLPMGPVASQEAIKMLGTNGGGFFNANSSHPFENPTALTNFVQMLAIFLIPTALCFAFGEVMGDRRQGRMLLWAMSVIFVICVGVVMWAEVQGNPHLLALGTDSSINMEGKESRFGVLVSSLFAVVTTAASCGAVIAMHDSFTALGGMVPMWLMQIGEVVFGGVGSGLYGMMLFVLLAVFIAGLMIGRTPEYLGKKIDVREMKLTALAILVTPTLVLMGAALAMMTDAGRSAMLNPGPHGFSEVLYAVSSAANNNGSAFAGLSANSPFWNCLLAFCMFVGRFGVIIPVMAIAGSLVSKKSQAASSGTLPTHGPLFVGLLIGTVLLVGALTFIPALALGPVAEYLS
T2 sequence (P36937 whole entry, further chain): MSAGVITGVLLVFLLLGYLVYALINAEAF
T2 sequence (P03961 whole entry, further chain): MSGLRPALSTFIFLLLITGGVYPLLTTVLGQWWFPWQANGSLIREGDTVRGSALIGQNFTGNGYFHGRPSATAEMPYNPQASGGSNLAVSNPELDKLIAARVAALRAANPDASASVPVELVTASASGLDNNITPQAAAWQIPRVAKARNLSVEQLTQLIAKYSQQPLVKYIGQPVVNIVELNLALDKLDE
T2 sequence (P03960 whole entry): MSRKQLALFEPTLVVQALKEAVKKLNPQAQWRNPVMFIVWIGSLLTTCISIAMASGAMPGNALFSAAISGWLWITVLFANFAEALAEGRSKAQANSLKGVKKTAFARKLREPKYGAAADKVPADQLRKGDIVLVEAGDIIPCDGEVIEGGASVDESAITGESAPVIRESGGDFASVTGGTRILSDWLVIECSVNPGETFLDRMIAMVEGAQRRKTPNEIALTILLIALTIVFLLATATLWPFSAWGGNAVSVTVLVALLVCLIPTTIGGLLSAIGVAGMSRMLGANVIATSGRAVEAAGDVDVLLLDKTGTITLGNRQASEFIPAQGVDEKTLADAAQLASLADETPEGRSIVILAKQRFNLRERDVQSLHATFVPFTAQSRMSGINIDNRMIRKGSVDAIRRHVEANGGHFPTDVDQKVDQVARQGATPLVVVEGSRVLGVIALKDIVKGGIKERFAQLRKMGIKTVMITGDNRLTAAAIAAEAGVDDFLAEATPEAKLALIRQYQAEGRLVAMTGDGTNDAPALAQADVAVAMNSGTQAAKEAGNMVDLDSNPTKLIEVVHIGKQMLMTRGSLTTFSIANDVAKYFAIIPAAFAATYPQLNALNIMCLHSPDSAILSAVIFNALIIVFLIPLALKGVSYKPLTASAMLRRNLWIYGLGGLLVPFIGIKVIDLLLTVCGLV

Regarding `Nc1ncnc2c1ncn2[C@@H]1O[C@H](COP(=O)(O)OP(=O)(O)OP(=O)(O)O)[C@@H](O)[C@H]1O` [ATP], the “in vitro phosphorylation of KdpB, phosphoprotein gel stain” value at EcKdpD was “Upon incubation with full-length KdpD, the phosphorylation was fully restored”; at KdpDNTD, “This truncated construct remained able to phosphorylate KdpB”; at DgKdpD [1] it was “DgKdpD can phosphorylate E. coli KdpB”. For the same compound, the “malachite green ATPase assay” value at KdpFABC is reported as “KdpFABC produced under these conditions showed a high ATPase activity”.
`Nc1ncnc2c1ncn2[C@@H]1O[C@@H]2COP(=O)(O)O[C@H]3[C@@H](O)[C@H](n4cnc5c(N)ncnc54)O[C@@H]3COP(=O)(O)O[C@H]2[C@H]1O` [c-di-AMP]: the “stimulation of ASK activity at 1 mM” value at DgKdpD [2] is recorded as “phosphorylation of E. coli KdpB by DgKdpD was stimulated in the presence of c-di-AMP”.
